# Experimental data published in ChEMBL document CHEMBL5465560, “Selectivity Literature for EUbOPEN Chemogenomic Library” (2024).
# Tests used:
# [1] = target: Dual specificity mitogen-activated protein kinase kinase 1 (Homo sapiens, UniProt Q02750); conditions: at 10 µM
# [2] = target: 3',5'-cyclic-AMP phosphodiesterase 4D (Homo sapiens) (UniProt Q08499); test: Selectivity interaction (Safety Panel 44tm (Eurofins)) EUB0000162b PDE4D; conditions: at 10 µM
# [3] = target: Tyrosine-protein kinase Fyn (Homo sapiens) (UniProt P06241); test: Selectivity interaction (KinomeScan (DiscoverX)) EUB0001079a FYN; conditions: at 1 µM
# [4] = target: Homeodomain-interacting protein kinase 2 (Homo sapiens, UniProt Q9H2X6); test: Selectivity interaction (KinomeScan (DiscoverX)) EUB0001079a HIPK2; conditions: at 1 µM
# [5] = target: Mitogen-activated protein kinase kinase kinase kinase 5 (Homo sapiens) (UniProt Q9Y4K4); test: Selectivity interaction (KinomeScan (DiscoverX)) EUB0001079a MAP4K5; conditions: at 1 µM
# [6] = target: Phosphorylase b kinase gamma catalytic chain, skeletal muscle/heart isoform (Homo sapiens) (UniProt Q16816); conditions: at 10 µM
# [7] = target: T1, Dual specificity mitogen-activated protein kinase kinase 3 (Homo sapiens) (UniProt P46734); test: Selectivity interaction (KinomeScan (DiscoverX)) EUB0001049a MAP2K3; conditions: at 1 µM
# T1 sequence (whole entry): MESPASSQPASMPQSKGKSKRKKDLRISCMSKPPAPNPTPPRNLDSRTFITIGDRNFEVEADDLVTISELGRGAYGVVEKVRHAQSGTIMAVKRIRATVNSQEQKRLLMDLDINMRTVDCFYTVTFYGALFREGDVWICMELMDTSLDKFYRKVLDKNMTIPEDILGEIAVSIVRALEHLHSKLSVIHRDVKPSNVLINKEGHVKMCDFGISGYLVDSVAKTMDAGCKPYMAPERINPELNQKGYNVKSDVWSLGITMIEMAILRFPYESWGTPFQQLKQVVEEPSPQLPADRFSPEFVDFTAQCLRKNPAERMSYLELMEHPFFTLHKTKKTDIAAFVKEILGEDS
# [8] = target: T2, Mitogen-activated protein kinase kinase kinase 13 (Homo sapiens) (UniProt O43283); test: Selectivity interaction (KinomeScan (DiscoverX)) EUB0001049a MAP3K13; conditions: at 1 µM
# T2 sequence (whole entry): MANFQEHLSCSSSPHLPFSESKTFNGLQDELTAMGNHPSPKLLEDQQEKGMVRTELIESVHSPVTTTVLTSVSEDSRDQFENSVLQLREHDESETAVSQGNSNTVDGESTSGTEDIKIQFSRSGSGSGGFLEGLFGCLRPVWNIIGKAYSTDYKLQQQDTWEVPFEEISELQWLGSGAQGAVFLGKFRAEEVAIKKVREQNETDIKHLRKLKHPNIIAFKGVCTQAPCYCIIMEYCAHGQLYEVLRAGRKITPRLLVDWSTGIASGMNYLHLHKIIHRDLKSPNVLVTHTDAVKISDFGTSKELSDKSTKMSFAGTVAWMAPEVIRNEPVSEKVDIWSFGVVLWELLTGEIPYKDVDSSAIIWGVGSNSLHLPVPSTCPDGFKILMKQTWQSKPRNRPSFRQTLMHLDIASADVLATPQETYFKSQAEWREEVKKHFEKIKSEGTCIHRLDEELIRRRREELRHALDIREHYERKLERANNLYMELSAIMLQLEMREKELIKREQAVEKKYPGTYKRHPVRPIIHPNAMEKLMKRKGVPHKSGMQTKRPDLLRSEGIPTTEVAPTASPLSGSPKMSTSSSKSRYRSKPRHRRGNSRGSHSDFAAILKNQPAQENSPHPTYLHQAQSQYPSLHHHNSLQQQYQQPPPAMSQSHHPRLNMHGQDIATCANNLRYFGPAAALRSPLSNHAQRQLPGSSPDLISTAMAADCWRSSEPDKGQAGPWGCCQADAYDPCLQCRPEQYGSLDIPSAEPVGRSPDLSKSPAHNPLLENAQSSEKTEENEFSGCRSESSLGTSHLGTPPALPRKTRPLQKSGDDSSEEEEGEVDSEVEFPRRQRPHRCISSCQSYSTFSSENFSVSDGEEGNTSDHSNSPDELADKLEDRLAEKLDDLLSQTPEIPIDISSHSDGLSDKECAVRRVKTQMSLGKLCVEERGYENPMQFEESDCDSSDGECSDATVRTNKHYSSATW
# [9] = target: T3, Serine/threonine-protein kinase TNNI3K (Homo sapiens) (UniProt Q59H18); test: Selectivity interaction (KinomeScan (DiscoverX)) EUB0000695a TNNI3K; conditions: at 100 nM
# T3 sequence (whole entry): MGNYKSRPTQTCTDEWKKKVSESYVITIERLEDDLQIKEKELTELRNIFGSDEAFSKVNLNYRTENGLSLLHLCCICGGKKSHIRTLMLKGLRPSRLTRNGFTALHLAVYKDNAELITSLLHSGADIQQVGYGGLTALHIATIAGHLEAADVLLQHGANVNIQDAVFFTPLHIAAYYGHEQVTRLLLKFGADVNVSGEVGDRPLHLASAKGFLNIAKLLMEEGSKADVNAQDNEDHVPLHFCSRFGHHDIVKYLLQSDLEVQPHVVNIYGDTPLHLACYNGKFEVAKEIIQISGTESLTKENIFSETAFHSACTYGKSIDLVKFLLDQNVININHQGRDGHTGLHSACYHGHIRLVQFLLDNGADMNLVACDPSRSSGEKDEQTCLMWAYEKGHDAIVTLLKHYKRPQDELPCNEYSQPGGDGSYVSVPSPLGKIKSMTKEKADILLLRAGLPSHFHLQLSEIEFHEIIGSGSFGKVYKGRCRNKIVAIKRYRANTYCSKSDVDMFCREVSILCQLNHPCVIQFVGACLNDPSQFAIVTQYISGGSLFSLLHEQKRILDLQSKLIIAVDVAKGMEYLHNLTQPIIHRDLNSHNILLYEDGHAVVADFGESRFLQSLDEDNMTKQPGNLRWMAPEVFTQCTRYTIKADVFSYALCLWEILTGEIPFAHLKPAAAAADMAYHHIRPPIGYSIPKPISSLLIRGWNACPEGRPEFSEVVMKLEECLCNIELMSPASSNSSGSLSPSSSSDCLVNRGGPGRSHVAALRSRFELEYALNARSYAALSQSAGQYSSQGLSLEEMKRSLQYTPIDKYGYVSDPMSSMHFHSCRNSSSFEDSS
# [10] = target: Serine/threonine-protein kinase MRCK alpha (Homo sapiens) (UniProt Q5VT25); test: Selectivity interaction (KinomeScan (DiscoverX)) EUB0000045b CDC42BPA
# [11] = target: Calcium/calmodulin-dependent protein kinase type II subunit delta (Homo sapiens) (UniProt Q13557); test: Selectivity interaction (KinomeScan (DiscoverX)) EUB0001619a CAMK2D; conditions: at 1 µM
# Chain of Serine/threonine-protein kinase MRCK alpha (Homo sapiens) (Q5VT25 whole entry): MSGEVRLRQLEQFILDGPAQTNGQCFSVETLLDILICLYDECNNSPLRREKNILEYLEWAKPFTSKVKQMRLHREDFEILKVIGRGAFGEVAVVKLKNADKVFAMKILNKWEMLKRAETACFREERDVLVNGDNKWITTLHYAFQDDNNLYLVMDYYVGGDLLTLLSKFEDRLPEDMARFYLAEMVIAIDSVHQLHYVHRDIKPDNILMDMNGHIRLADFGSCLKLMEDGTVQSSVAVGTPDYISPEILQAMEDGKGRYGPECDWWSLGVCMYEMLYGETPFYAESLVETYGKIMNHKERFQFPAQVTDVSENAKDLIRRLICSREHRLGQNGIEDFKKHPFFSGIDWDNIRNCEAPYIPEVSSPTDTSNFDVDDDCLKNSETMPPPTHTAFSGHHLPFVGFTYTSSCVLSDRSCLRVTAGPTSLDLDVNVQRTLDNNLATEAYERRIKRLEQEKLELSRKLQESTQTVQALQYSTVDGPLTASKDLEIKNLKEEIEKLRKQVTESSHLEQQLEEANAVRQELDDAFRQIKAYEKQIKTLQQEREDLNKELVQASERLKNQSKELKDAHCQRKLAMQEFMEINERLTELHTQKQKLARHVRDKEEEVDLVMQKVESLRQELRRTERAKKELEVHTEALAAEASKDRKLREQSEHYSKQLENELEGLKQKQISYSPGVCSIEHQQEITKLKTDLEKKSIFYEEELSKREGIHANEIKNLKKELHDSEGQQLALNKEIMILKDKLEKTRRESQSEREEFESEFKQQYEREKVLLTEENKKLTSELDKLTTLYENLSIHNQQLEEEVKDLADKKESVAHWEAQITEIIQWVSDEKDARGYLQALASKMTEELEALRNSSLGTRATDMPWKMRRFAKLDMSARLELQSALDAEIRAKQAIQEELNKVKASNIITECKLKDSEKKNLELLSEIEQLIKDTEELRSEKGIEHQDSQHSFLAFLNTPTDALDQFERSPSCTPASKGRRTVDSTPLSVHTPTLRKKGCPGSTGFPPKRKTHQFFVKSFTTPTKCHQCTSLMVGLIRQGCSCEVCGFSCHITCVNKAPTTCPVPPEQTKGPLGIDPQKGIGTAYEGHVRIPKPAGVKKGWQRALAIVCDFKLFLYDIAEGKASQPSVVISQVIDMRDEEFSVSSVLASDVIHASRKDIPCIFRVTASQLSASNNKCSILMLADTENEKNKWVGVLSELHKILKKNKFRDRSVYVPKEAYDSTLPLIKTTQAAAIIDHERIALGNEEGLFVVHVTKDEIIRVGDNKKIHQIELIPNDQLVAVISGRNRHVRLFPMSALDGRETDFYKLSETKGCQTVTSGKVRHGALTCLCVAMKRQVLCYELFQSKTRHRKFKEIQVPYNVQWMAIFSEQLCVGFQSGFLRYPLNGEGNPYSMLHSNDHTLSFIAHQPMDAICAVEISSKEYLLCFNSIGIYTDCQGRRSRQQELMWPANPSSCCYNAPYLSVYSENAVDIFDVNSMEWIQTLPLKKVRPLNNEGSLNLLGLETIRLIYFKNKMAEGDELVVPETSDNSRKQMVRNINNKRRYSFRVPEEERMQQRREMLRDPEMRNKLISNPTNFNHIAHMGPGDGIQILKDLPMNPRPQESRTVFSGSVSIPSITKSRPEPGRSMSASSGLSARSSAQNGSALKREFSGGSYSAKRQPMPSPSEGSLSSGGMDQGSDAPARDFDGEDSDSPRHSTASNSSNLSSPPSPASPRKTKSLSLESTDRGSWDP
# Chain of Mitogen-activated protein kinase kinase kinase kinase 5 (Homo sapiens) (Q9Y4K4 whole entry, looked up, canonical isoform): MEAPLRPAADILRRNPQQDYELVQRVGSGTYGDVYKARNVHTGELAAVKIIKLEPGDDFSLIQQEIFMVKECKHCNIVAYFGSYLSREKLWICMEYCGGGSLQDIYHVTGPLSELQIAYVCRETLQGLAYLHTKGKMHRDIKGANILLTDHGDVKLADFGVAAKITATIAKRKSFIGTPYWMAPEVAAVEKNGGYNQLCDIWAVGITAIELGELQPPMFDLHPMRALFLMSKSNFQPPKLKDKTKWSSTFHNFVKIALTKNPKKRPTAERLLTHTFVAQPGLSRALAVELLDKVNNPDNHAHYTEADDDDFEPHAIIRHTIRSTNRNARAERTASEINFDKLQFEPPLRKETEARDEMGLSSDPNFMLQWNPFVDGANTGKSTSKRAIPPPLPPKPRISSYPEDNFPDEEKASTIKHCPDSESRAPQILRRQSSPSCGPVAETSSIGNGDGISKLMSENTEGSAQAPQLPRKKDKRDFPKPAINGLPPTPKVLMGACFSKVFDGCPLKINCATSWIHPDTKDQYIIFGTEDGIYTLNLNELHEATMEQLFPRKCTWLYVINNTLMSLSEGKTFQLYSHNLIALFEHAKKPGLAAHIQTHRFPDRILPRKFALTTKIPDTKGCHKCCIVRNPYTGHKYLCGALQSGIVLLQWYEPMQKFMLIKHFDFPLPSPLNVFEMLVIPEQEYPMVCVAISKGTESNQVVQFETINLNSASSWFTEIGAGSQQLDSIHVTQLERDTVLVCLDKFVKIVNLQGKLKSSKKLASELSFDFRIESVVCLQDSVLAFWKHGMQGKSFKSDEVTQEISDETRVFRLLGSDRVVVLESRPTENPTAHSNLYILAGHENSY
# Chain of Homeodomain-interacting protein kinase 2 (Q9H2X6 whole entry, looked up): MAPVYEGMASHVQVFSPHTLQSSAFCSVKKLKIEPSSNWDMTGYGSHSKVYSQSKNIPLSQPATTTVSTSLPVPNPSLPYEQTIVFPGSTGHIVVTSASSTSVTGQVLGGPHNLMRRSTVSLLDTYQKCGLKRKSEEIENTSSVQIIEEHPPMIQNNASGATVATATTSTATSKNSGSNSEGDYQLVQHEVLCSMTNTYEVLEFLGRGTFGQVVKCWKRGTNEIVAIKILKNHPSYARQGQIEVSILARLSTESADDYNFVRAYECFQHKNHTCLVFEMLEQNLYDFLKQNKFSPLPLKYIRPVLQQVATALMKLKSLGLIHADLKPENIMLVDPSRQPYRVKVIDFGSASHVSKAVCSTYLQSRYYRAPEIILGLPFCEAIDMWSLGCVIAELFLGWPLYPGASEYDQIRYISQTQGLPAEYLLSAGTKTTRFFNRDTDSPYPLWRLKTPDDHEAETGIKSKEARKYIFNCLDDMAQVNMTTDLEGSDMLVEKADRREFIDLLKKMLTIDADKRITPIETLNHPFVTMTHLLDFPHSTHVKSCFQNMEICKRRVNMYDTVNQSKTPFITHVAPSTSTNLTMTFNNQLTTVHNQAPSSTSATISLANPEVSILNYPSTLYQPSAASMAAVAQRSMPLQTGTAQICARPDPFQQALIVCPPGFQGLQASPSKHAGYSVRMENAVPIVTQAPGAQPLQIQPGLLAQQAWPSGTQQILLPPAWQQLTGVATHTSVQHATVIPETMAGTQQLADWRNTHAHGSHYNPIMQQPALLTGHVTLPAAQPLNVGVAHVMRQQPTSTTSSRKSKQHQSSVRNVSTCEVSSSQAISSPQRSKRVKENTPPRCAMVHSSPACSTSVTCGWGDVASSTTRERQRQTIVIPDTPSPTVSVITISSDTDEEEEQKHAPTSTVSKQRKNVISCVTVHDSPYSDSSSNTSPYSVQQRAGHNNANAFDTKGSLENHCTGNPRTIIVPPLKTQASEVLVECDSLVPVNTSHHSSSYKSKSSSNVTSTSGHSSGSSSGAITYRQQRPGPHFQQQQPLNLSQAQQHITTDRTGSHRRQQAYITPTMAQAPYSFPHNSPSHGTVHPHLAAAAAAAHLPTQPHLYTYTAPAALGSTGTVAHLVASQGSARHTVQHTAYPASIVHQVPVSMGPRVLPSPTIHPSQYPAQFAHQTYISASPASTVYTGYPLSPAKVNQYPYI
# Chain of Dual specificity mitogen-activated protein kinase kinase 1 (Q02750 whole entry): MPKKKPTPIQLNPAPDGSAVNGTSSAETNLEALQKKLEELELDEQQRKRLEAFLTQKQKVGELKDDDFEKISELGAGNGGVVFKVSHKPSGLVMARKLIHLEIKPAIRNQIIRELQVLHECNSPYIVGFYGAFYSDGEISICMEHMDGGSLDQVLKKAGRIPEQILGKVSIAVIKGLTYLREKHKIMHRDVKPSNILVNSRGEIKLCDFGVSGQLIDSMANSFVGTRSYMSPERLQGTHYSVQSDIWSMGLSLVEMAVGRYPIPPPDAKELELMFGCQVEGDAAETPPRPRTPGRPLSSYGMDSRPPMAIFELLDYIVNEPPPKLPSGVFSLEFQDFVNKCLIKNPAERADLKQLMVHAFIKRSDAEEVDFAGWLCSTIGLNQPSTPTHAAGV
# Chain of Tyrosine-protein kinase Fyn (Homo sapiens) (P06241 2-537 limits assumed): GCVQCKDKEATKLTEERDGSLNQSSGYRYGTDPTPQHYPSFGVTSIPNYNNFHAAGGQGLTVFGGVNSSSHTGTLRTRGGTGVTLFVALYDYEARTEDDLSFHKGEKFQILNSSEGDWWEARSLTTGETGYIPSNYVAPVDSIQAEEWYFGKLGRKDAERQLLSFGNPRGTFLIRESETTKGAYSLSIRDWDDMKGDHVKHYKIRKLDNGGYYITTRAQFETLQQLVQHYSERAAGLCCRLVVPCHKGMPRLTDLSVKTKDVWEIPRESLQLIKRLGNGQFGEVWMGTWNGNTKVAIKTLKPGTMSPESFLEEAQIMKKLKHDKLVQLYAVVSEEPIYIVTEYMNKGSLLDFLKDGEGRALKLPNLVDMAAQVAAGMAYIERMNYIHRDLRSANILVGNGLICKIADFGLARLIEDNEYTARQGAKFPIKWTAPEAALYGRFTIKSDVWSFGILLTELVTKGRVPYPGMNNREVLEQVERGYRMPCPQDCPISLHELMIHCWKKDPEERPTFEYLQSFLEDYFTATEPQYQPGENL
# Chain of Phosphorylase b kinase gamma catalytic chain, skeletal muscle/heart isoform (Homo sapiens) (Q16816 whole entry, looked up, canonical isoform): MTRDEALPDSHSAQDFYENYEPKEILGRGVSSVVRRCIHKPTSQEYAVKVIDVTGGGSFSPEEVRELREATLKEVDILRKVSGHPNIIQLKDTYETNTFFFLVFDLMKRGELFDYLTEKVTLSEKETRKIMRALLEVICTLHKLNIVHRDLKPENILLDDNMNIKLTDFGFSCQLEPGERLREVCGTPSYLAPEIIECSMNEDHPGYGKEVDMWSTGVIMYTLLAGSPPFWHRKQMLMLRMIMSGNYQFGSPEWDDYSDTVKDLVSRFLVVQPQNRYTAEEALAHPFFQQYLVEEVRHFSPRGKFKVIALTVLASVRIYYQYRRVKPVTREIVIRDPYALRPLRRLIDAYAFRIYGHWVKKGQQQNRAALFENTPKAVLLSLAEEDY
structure (smiles),measurement,setting,value
CCN(CC)CCCCNc1ncc2cc(-c3cc(OC)cc(OC)c3)c(NC(=O)NC(C)(C)C)nc2n1,% of control,[1],100%
CN(C)C(=O)Cn1cc(-c2ccc(-c3cncc4ccccc34)cc2)cn1,% of control,[2],54%
Nc1cnc(N2CCc3cc(S(=O)(=O)Nc4c(F)cc(Cl)cc4F)cc(N4CCCC4=O)c32)nc1 [TP-020n],% of control,[3],58%
same,% of control,[4],100%
same,% of control,[5],73%
Cc1cc([C@@H](C)Nc2ccccc2C(=O)O)c2nc(N3CCOCC3)cc(=O)n2c1 [AZD-6482],% of control,[6],93%
COc1cc(Nc2nc(C)cc(-c3cnn4nc(OC)ccc34)n2)cc(C(F)(F)F)c1,% of control,[7],86%
same,% of control,[8],95%
Cc1cc(F)c(C(=O)Nc2cccc(-c3nncn3C(C)C)n2)cc1-n1cnc(C2CC2)c1,% of control,[9],100%
C=CC(=O)Nc1cc(-n2c(=O)ccc3cnc4ccc(-c5ccc(NS(C)(=O)=O)cc5)cc4c32)ccc1C,% of control,[10]; at 1 µM,100%
same,% of control,[10]; at 10 µM,96%
N#Cc1cccc(-c2c[nH]c3ncnc(N4CCOCC4)c23)c1,% of control,[11],80%
